The data set can be described thus: recombinant barcode read abundance after kanamycin selection (control-corrected) (log10(CPM+1)); higher = more efficient recombination; sequences stand for … in AGTGCAGAGAAAATCGGCCAGTTTTCTCTGCCTGCAGTCCGCATGCCGT…ATTTATGCAGCGGACTGCCTTTCTCCCAAAGTGATAAACCGGACAGTATCATGGACCGGTTTTCCCGGTAATCCGTATTTGCAAGGTTGGTTTCACT; site = the 11-nt target. A digest of the protocol: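 In E. coli, a pooled library matched targets to IS621 bridge RNA target-binding loops and was introduced alongside a donor plasmid. Cells went onto chloramphenicol/ampicillin/kanamycin with 0.1 mM IPTG or onto chloramphenicol/ampicillin LB agar as control, in duplicate. Recombination efficiency, from recombinant-junction barcodes as counts per million, is averaged and control-corrected. It is reported as log10(CPM+1).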

This is an account of results in the supplement of paper PMC11208160.

As for “GGACACCTTTGGGTTCTAACCTGTTGCCTAG [GGACACCCTAG_LTGcore_TT_RTGcore_CT] (site GGACACCCTAG) (LTG core: TT, RTG core: CT)”, the “recombinant barcode read abundance (log10)” value came to 0.0765.
For “GGCTCCCATTGGGTTCTAACCTGTTGCGGAG [GGCTCCCCTCC_LTGcore_AT_RTGcore_CT] (site GGCTCCCCTCC) (LTG core: AT, RTG core: CT)”, the “recombinant barcode read abundance (log10)” value was determined as 0.157.
Next, “GGCTCCCCTTGGGTTCTAACCTGTTGCGGAC [GGCTCCCCTCC_LTGcore_CT_RTGcore_GT] (site GGCTCCCCTCC) (LTG core: CT, RTG core: GT)”: 0.0822.
Next, “GGCTCCCCTTGGGTTCTAACCTGTTGCGGGA [GGCTCCCCTCC_LTGcore_CT_RTGcore_TC] (site GGCTCCCCTCC) (LTG core: CT, RTG core: TC)”: 0.302.
Then “GGCTCCCCTTGGGTTCTAACCTGTTGCGGGC [GGCTCCCCTCC_LTGcore_CT_RTGcore_GC] (site GGCTCCCCTCC) (LTG core: CT, RTG core: GC)”, with 0.112; and “GGCTCCCGCTGGGTTCTAACCTGTTGCGGAG [GGCTCCCCTCC_LTGcore_GC_RTGcore_CT] (site GGCTCCCCTCC) (LTG core: GC, RTG core: CT)”, with 0.0135; and “GGCTCCCGGTGGGTTCTAACCTGTTGCGGAG [GGCTCCCCTCC_LTGcore_GG_RTGcore_CT] (site GGCTCCCCTCC) (LTG core: GG, RTG core: CT)”, with 0.0853.
With “GGCTCCCTATGGGTTCTAACCTGTTGCGGAG [GGCTCCCCTCC_LTGcore_TA_RTGcore_CT] (site GGCTCCCCTCC) (LTG core: TA, RTG core: CT)”, the “recombinant barcode read abundance (log10)” value came to 0.233.
Next, “GGGAGCCACTGGGTTCTAACCTGTTGCTGGT [GGGAGCCCTCA_LTGcore_AC_RTGcore_AC] (site GGGAGCCCTCA) (LTG core: AC, RTG core: AC)”: 0.222; “GGGAGCCCCTGGGTTCTAACCTGTTGCTGGG [GGGAGCCCTCA_LTGcore_CC_RTGcore_CC] (site GGGAGCCCTCA) (LTG core: CC, RTG core: CC)”: 0.0526; “GGGAGCCCTTGGGTTCTAACCTGTTGCTGAC [GGGAGCCCTCA_LTGcore_CT_RTGcore_GT] (site GGGAGCCCTCA) (LTG core: CT, RTG core: GT)”: 1.06.
Next, “GGGAGCCCTTGGGTTCTAACCTGTTGCTGGA [GGGAGCCCTCA_LTGcore_CT_RTGcore_TC] (site GGGAGCCCTCA) (LTG core: CT, RTG core: TC)”: 0.172.
Next, “GGGAGCCCTTGGGTTCTAACCTGTTGCTGTA [GGGAGCCCTCA_LTGcore_CT_RTGcore_TA] (site GGGAGCCCTCA) (LTG core: CT, RTG core: TA)”: 0.029; “GGGAGCCGTTGGGTTCTAACCTGTTGCTGAC [GGGAGCCCTCA_LTGcore_GT_RTGcore_GT] (site GGGAGCCCTCA) (LTG core: GT, RTG core: GT)”: 0.168.
Consider “GGGAGCCGTTGGGTTCTAACCTGTTGCTGAG [GGGAGCCCTCA_LTGcore_GT_RTGcore_CT] (site GGGAGCCCTCA) (LTG core: GT, RTG core: CT)”, for which the “recombinant barcode read abundance (log10)” value was found to be 0.186.
Then “GGGAGCCTCTGGGTTCTAACCTGTTGCTGAG [GGGAGCCCTCA_LTGcore_TC_RTGcore_CT] (site GGGAGCCCTCA) (LTG core: TC, RTG core: CT)”, with 0.0348; and “GGGAGCCTCTGGGTTCTAACCTGTTGCTGGA [GGGAGCCCTCA_LTGcore_TC_RTGcore_TC] (site GGGAGCCCTCA) (LTG core: TC, RTG core: TC)”, with 0.0883; and “GGGAGCCTTTGGGTTCTAACCTGTTGCTGAA [GGGAGCCCTCA_LTGcore_TT_RTGcore_TT] (site GGGAGCCCTCA) (LTG core: TT, RTG core: TT)”, with 0.11.
On to “GGGCGGACTTGGGTTCTAACCTGTTGCGGAG [GGGCGGACTCC_LTGcore_CT_RTGcore_CT] (site GGGCGGACTCC) (LTG core: CT, RTG core: CT)”, for which the “recombinant barcode read abundance (log10)” value is 2.08.
Next, “GGGCGGACTTGGGTTCTAACCTGTTGCGGCC [GGGCGGACTCC_LTGcore_CT_RTGcore_GG] (site GGGCGGACTCC) (LTG core: CT, RTG core: GG)”: 0.0677; “GGGCGGACTTGGGTTCTAACCTGTTGCGGCG [GGGCGGACTCC_LTGcore_CT_RTGcore_CG] (site GGGCGGACTCC) (LTG core: CT, RTG core: CG)”: 0.232; “GGGCGGACTTGGGTTCTAACCTGTTGCGGGG [GGGCGGACTCC_LTGcore_CT_RTGcore_CC] (site GGGCGGACTCC) (LTG core: CT, RTG core: CC)”: 0.212.
As to “GGGCGGACTTGGGTTCTAACCTGTTGCGGTA [GGGCGGACTCC_LTGcore_CT_RTGcore_TA] (site GGGCGGACTCC) (LTG core: CT, RTG core: TA)”, the “recombinant barcode read abundance (log10)” value was found to be 0.0865.
Then “GGGCGGACTTGGGTTCTAACCTGTTGCGGTT [GGGCGGACTCC_LTGcore_CT_RTGcore_AA] (site GGGCGGACTCC) (LTG core: CT, RTG core: AA)”, with 0.765.
Turning to “GGGCGGAGATGGGTTCTAACCTGTTGCGGTC [GGGCGGACTCC_LTGcore_GA_RTGcore_GA] (site GGGCGGACTCC) (LTG core: GA, RTG core: GA)”, the “recombinant barcode read abundance (log10)” value is 0.235.
Next, “GGGCGGATCTGGGTTCTAACCTGTTGCGGAG [GGGCGGACTCC_LTGcore_TC_RTGcore_CT] (site GGGCGGACTCC) (LTG core: TC, RTG core: CT)”: 0.798.
On to “GGGCGGATTTGGGTTCTAACCTGTTGCGGAA [GGGCGGACTCC_LTGcore_TT_RTGcore_TT] (site GGGCGGACTCC) (LTG core: TT, RTG core: TT)”, for which the “recombinant barcode read abundance (log10)” value is 0.223.
Then “GGGCGGATTTGGGTTCTAACCTGTTGCGGAG [GGGCGGACTCC_LTGcore_TT_RTGcore_CT] (site GGGCGGACTCC) (LTG core: TT, RTG core: CT)”, with 0.188; and “GGGCGTGAATGGGTTCTAACCTGTTGCCTAG [GGGCGTGCTAG_LTGcore_AA_RTGcore_CT] (site GGGCGTGCTAG) (LTG core: AA, RTG core: CT)”, with 0.0426; and “GGGCGTGCCTGGGTTCTAACCTGTTGCCTGG [GGGCGTGCTAG_LTGcore_CC_RTGcore_CC] (site GGGCGTGCTAG) (LTG core: CC, RTG core: CC)”, with 0.138.
For “GGGCGTGCGTGGGTTCTAACCTGTTGCCTAG [GGGCGTGCTAG_LTGcore_CG_RTGcore_CT] (site GGGCGTGCTAG) (LTG core: CG, RTG core: CT)”, the “recombinant barcode read abundance (log10)” value came out at 0.0925.
Take “GGGCGTGCTTGGGTTCTAACCTGTTGCCTCC [GGGCGTGCTAG_LTGcore_CT_RTGcore_GG] (site GGGCGTGCTAG) (LTG core: CT, RTG core: GG)”: the “recombinant barcode read abundance (log10)” value came out at 1.53.
In the case of “GGGCGTGCTTGGGTTCTAACCTGTTGCCTGC [GGGCGTGCTAG_LTGcore_CT_RTGcore_GC] (site GGGCGTGCTAG) (LTG core: CT, RTG core: GC)”, the “recombinant barcode read abundance (log10)” value was 0.847.
Regarding “GGGCGTGCTTGGGTTCTAACCTGTTGCCTTC [GGGCGTGCTAG_LTGcore_CT_RTGcore_GA] (site GGGCGTGCTAG) (LTG core: CT, RTG core: GA)”, the “recombinant barcode read abundance (log10)” value stood at 0.564.
Then “GGGCGTGTATGGGTTCTAACCTGTTGCCTAG [GGGCGTGCTAG_LTGcore_TA_RTGcore_CT] (site GGGCGTGCTAG) (LTG core: TA, RTG core: CT)”, with 0.
On to “GGGCGTGTATGGGTTCTAACCTGTTGCCTTA [GGGCGTGCTAG_LTGcore_TA_RTGcore_TA] (site GGGCGTGCTAG) (LTG core: TA, RTG core: TA)”, for which the “recombinant barcode read abundance (log10)” value was 0.36.
Then “GGTGCCCCTTGGGTTCTAACCTGTTGCCGAC [GGTGCCCCTCG_LTGcore_CT_RTGcore_GT] (site GGTGCCCCTCG) (LTG core: CT, RTG core: GT)”, with 0.297.
As for “GGTGCCCCTTGGGTTCTAACCTGTTGCCGTC [GGTGCCCCTCG_LTGcore_CT_RTGcore_GA] (site GGTGCCCCTCG) (LTG core: CT, RTG core: GA)”, the “recombinant barcode read abundance (log10)” value turned out to be 0.332.
Regarding “GGTGCCCGATGGGTTCTAACCTGTTGCCGTC [GGTGCCCCTCG_LTGcore_GA_RTGcore_GA] (site GGTGCCCCTCG) (LTG core: GA, RTG core: GA)”, the “recombinant barcode read abundance (log10)” value is 0.134.
As for “GGTGCCCTCTGGGTTCTAACCTGTTGCCGAG [GGTGCCCCTCG_LTGcore_TC_RTGcore_CT] (site GGTGCCCCTCG) (LTG core: TC, RTG core: CT)”, the “recombinant barcode read abundance (log10)” value worked out at 0.0654.
“GTCGCCCAGTGGGTTCTAACCTGTTGCTAAG [GTCGCCCCTTA_LTGcore_AG_RTGcore_CT] (site GTCGCCCCTTA) (LTG core: AG, RTG core: CT)”: the “recombinant barcode read abundance (log10)” value was 0.139.
Next, “GTCGCCCAGTGGGTTCTAACCTGTTGCTACT [GTCGCCCCTTA_LTGcore_AG_RTGcore_AG] (site GTCGCCCCTTA) (LTG core: AG, RTG core: AG)”: 0.283; “GTCGCCCCATGGGTTCTAACCTGTTGCTATG [GTCGCCCCTTA_LTGcore_CA_RTGcore_CA] (site GTCGCCCCTTA) (LTG core: CA, RTG core: CA)”: 0.379.
